Legend:
[1] = compounded from commercial tablets in the vehicles; Papich et al. (2013); cited from earlier work
[2] = Quantification of doxycycline in formulations 1-3 by LC-MS/MS (stability); assay type: physicochemical; details: over the time period studied (three months) under the storage conditions 5-25° C.
Method: 2.0-5.0 mg of doxycycline hyclate, usp (Medisca, CAS 24390-14-5, code 0434-04, lot 59177/D) was weighed into a scintillation vial and the mass was recorded. The recorded mass was then used to calculate the volume of solvent needed to generate a final concentration of 1 mg/mL and that amount of 60:28:12 H2O:CH3CN:MeOH was accurately added to the vial using a pipette. The solution was vortexed for 30 seconds or until the doxycycline hyclate was completely dissolved.
A 50 μg/mL solution of doxycycline hyclate was prepared by adding 50 μL of 1 mg/mL stock solution to 950 μL of methanol/water (50:50) and the resulting solution was vortexed for 10 seconds. […]
5-10 mgs of exemplary formulation 3 to be analyzed was weighed into a scintillation vial in duplicate. The mass was recorded and used to calculate the amount of methanol/water (50:50) to add to make up to 1 mg/mL and this was added. […]
Doxycycline was extracted in methanol:water from cream formulations by sonication, diluted and then quantified using liquid chromatography-triple quadruple mass spectrometry (LC-MS/MS). A calibration curve calculated by the peak area ratio of concentration of an analytical standard of doxycycline to an internal standard was used to calculate the concentrations of unknowns and establish linearity and LLOQ. […]

Doxycycline
time over which the concentration of DOX can be assured [1]: ≤ 7 days | degradation of the doxycycline [2]: < 10%

Reference: patent US20180243212A1, “TRANSDERMAL FORMULATIONS FOR DELIVERY OF DOXYCYCLINE, AND THEIR USE IN THE TREATMENT OF DOXYCYCLINE-RESPONSIVE DISEASES AND CONDITIONS” (DELIVRA, INC., priority 2015, published 2018)
